Measurements published in PubChem BioAssay AID812 (SRMLSC, 2007).
The source made the active and inactive calls. How the calls were made is not given here.

These molecules were tested on Saccharomyces cerevisiae lifespan extension, no nicotinamide (assay: yeast lifespan extension without nicotinamide, confirmation, yeast lifespan extension project, S. cerevisiae (AID 812);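 further: growth read as optical density after 42 hours of incubation at 30C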).
In the case of `CCSc1ccccc1C(=O)n1nnc2ccccc21`, the EC50 is reported as > 40 µM (inactive). In the case of `O=C(CCl)c1ccc(Cc2ncc(C(F)(F)F)cc2Cl)s1`, the EC50 is reported as > 40 µM (inactive). With `Cc1ccc(N/C(C(Cl)=C(Cl)Cl)=C(/Cl)[N+](=O)[O-])c(C)c1` the EC50 was > 40 µM (inactive). For `COc1ccc(CN2C(=O)/C(=C/c3ccncc3)SC2=S)cc1`, the EC50 was > 40 µM (inactive). For `Cc1ncc(C23CC4CC(CC(C4)C2)C3)[nH]1`, the EC50 was > 40 µM (inactive). For `Cc1cccc(N2C(=O)/C(=C\c3ccc(OC(F)F)cc3)c3ccccc3C2=O)c1`, the EC50 was > 40 µM (inactive). With `CCn1ccc(C(=O)Nc2ccc(S(=O)(=O)Nc3ccccc3OC)cc2)n1` the EC50 was > 40 µM (inactive). For `COc1ccc(/C(O)=C/C(=O)C(=O)Nc2c(C)n(C)n(-c3ccccc3)c2=O)cc1`, the EC50 was > 40 µM (inactive). In the case of `CCC(=O)N1CCN(CCN=CC2=C(O)CC(c3cccs3)CC2=O)CC1` (configuration not stated), the EC50 is reported as > 40 µM (inactive). With `CCCc1nc2c(c(=O)c3ccccc3n2C)c(=O)n1C1CCCCCC1` the EC50 was > 40 µM (inactive). For `COc1ccc(C2CC23N=C(c2ccccc2)OC3=O)cc1` (configuration not stated), the EC50 was > 40 µM (inactive). In the case of `COc1cc(/C=c2\sc3nc(-c4ccncc4)nn3c2=O)ccc1OC(C)=O`, the EC50 is reported as > 40 µM (inactive). For `COC(=O)C1=C(C(=O)OC)SC(=C2C(=S)C(C)(C)N(C(=O)C(C)C)c3ccccc32)S1`, the EC50 was > 40 µM (inactive). In the case of `COCCn1c(SCC(=O)Nc2ccc(C)cc2)nc2c(oc3ccccc32)c1=O`, the EC50 is reported as > 40 µM (inactive). For `O=c1[nH]c2ccccc2nc1C(Cl)c1ccccc1` (configuration not stated), the EC50 was > 40 µM (inactive). `O=C(/C=C/c1ccccc1)Nc1ncn[nH]1` was tested, and the EC50 was > 40 µM (inactive). In the case of `Cc1ccc(S(=O)(=O)Nc2ccccc2/C=N/c2nc3ccccc3n2C(C)C)cc1`, the EC50 is reported as > 40 µM (inactive). With `COC(=O)CCS(=O)(=O)c1nc(-c2ccccc2)cc(C(F)(F)F)n1` the EC50 was > 40 µM (inactive). For `CCOC(=O)c1nnn(-c2nonc2N)c1CN1CCc2ccccc2C1`, the EC50 was > 40 µM (inactive). With `COc1ccc(C(C)NC(=O)c2ccccc2)cc1` (configuration not stated) the EC50 was > 40 µM (inactive). In the case of `O=C1C(Cl)=C(Nc2ccccc2O)C(=O)N1CCc1ccccc1`, the EC50 is reported as > 40 µM (inactive). `Cc1nonc1NC(=O)CSc1nc(C2CCCCC2)nc2ccccc12` was tested, and the EC50 was > 40 µM (inactive). `O=c1c2[nH]c3ccccc3c2ncn1Cc1ccco1` was tested, and the EC50 was > 40 µM (inactive). `CCCCNC(=O)/C(C#N)=C/c1cccnc1` was tested, and the EC50 was > 40 µM (inactive). With `CCCn1c(SCC(=O)c2ccc3c(c2)NC(=O)CO3)nc2ccccc21` the EC50 was > 40 µM (inactive). In the case of `O=C(Oc1ccc([N+](=O)[O-])cc1)c1ccc2ccccc2n1`, the EC50 is reported as > 40 µM (inactive). For `CS(=O)(=O)c1nc(-c2cccs2)cc(C(F)(F)F)n1`, the EC50 was > 40 µM (inactive). With `C/C(=N\NC(=O)c1cccnc1)c1c(O)cc(C)oc1=O` the EC50 was > 40 µM (inactive). `N#CSCC(=O)N1c2ccccc2CCc2ccccc21` was tested, and the EC50 was > 40 µM (inactive). In the case of `Oc1ccc(Br)cc1C=Nc1ccc2[nH]ncc2c1`, the EC50 is reported as > 40 µM (inactive). `O=C(/C(=C/O)N=Nc1ccc(Cl)cc1)c1ccncc1` was tested, and the EC50 was > 40 µM (inactive). In the case of `CN(C)/C=C(/C(=O)c1ccc(Cl)cc1Cl)S(=O)(=O)c1ccc(Cl)cc1`, the EC50 is reported as > 40 µM (inactive). In the case of `Cc1ccc(-c2ccc(/C=C3\C(=O)ON=C3c3ccccc3)o2)c([N+](=O)[O-])c1`, the EC50 is reported as > 40 µM (inactive). With `CS(=O)(=O)Oc1ccc(Br)cc1/C=C1/N=C(c2ccco2)OC1=O` the EC50 was > 40 µM (inactive). With `CCCCCn1c(=O)c(C(=O)NCc2ccccn2)c(O)c2ccccc21` the EC50 was > 40 µM (inactive). With `O=C(NCc1ccco1)c1c(O)c2cccc3c2n(c1=O)CCC3` the EC50 was > 40 µM (inactive). In the case of `Nn1c(-c2ccccn2)nnc1-c1ccccn1`, the EC50 is reported as > 40 µM (inactive). `Cc1ccc(C(=O)NNC(=S)NC(=O)c2ccc(Cl)cc2)cc1` was tested, and the EC50 was > 40 µM (inactive). `O=C1c2ccccc2C(=O)N1c1ncc(Cc2ccc(Cl)cc2)s1` was tested, and the EC50 was > 40 µM (inactive). `CCOc1ccc2nc(NCCNC(=O)Nc3ccccc3)c(C#N)cc2c1` was tested, and the EC50 was > 40 µM (inactive). In the case of `O=C(Cn1nc(Cl)nc1Cl)c1cc2ccccc2oc1=O`, the EC50 is reported as > 40 µM (inactive). For `CCc1oc2ccccc2c1C(=O)CCN1CCCCC1`, the EC50 was > 40 µM (inactive). With `Cn1c(SCC(=O)N2CCCc3ccccc32)nnc1-c1c[nH]c2ccccc12` the EC50 was > 40 µM (inactive). In the case of `O=C(c1ccccc1)C(CN1CCCC1)c1ccccc1` (configuration not stated), the EC50 is reported as > 40 µM (inactive). For `Cc1nc2ccccc2n1-c1ccccc1`, the EC50 was > 40 µM (inactive). With `CC(=O)c1c(O)cc2n(c1=O)-c1ccc(Cl)cc1C2(C)C` the EC50 was > 40 µM (inactive). `COc1ccc(-c2cc(C(F)(F)F)nc(S(C)(=O)=O)n2)cc1` was tested, and the EC50 was > 40 µM (inactive). `Cc1cc(C)n(-c2ccc(OCC(=O)O)nn2)n1` was tested, and the EC50 was > 40 µM (inactive). With `O=Cc1cc2ccccc2nc1SCc1ccc(Cl)cc1` the EC50 was > 40 µM (inactive). For `O=S1(=O)C=C(Sc2nc3ccccc3s2)c2ccccc21`, the EC50 was > 40 µM (inactive). For `CCN(CC)Cc1c(O)c(Cl)cc2c(C)c(C)c(=O)oc12`, the EC50 was > 40 µM (inactive). `CNC(=O)/C(C#N)=C/c1c(F)cccc1Cl` was tested, and the EC50 was > 40 µM (inactive). With `CC(C)c1noc2ncc(C(=O)c3cc(Cl)cc(Cl)c3O)cc12` the EC50 was > 40 µM (inactive). `CC(=C1C(=O)c2ccccc2C1=O)N1CCN(c2ccccn2)CC1` was tested, and the EC50 was > 40 µM (inactive). `COc1ccc(/C=C(/C(=O)c2ccc(Cl)cc2Cl)n2cncn2)cc1` was tested, and the EC50 was > 40 µM (inactive). In the case of `CC1Cc2ccccc2N1C(=O)Cn1cnc2ccccc2c1=O` (configuration not stated), the EC50 is reported as > 40 µM (inactive). For `O=S(=O)(CCSc1ccccn1)c1nc2ccccc2s1`, the EC50 was > 40 µM (inactive). With `O=c1c2c3c(sc2ncn1/N=C/c1ccc([N+](=O)[O-])o1)CCCC3` the EC50 was > 40 µM (inactive). `CS(=O)(=O)c1nc(-c2ccco2)cc(C(F)(F)F)n1` was tested, and the EC50 was > 40 µM (inactive). In the case of `CCOC(=O)C1C(c2cccs2)NC(=O)N(C)C1(O)C(F)(F)F` (configuration not stated), the EC50 is reported as > 40 µM (inactive). For `CCCCSc1nc(O)c(C2OC(=O)c3c2ccc(OC)c3OC)c(=O)n1C` (configuration not stated), the EC50 was > 40 µM (inactive). In the case of `CC(C)CN=C(NS(=O)(=O)c1ccccc1)C(Cl)(Cl)Cl`, the EC50 is reported as > 40 µM (inactive). For `COc1ccc(CC(=O)Nc2ccc3c(c2)CCC3)cc1S(=O)(=O)N1CCOCC1`, the EC50 was > 40 µM (inactive). `COc1ccc(CN2CCN(C(=O)COc3cccc(C)c3)CC2)c(OC)c1` was tested, and the EC50 was > 40 µM (inactive). With `O=C(CCC1CCCC1)c1c(O)c2ccccc2oc1=O` the EC50 was > 40 µM (inactive). For `CCn1c(=O)c2c(O)cc(=O)oc2c2ccccc21`, the EC50 was > 40 µM (inactive). `CC(=O)C(C(C)=O)c1c(Cl)c(O)c(O)c2c(C(=O)c3ccccc3)coc12` was tested, and the EC50 was > 40 µM (inactive). With `CCc1cc2c(=O)c(Oc3ccccc3)c(C)oc2cc1O` the EC50 was > 40 µM (inactive). For `COc1ccc(C(=O)Nc2ccc(OCc3ccccc3)cc2)cc1[N+](=O)[O-]`, the EC50 was > 40 µM (inactive). With `CCc1c(C)c(C#N)c2nc3ccccc3n2c1Cl` the EC50 was > 40 µM (inactive). `CC(=O)Nc1c(O)nc(SCc2ccccc2C#N)[nH]c1=O` was tested, and the EC50 was > 40 µM (inactive). `CC(=O)[C@H]1[C@H](c2cccc(Cl)c2)C(C#N)(C#N)[C@@H]2c3ccccc3C=CN21` was tested, and the EC50 was > 40 µM (inactive). `CC1CCCCC1NC(=O)/C(C#N)=C/c1ccccc1F` (configuration not stated) was tested, and the EC50 was > 40 µM (inactive). `COC(=O)c1cc(=O)n(-c2ccccc2)c(=Nc2ccccc2)s1` was tested, and the EC50 was > 40 µM (inactive). With `Cc1cccc(OC(=O)n2c(=S)oc3cc(Cl)ccc32)c1` the EC50 was > 40 µM (inactive). `O=C1/C(=C/c2cccnc2)CCC/C1=C\c1cccnc1` was tested, and the EC50 was > 40 µM (inactive). In the case of `Cc1cc(NS(=O)(=O)c2ccc(CC(C)C)cc2)no1`, the EC50 is reported as > 40 µM (inactive). For `CC(=O)Oc1oc(-c2ccccc2)nc1C=Nc1ccccc1`, the EC50 was > 40 µM (inactive). `CCOC(=O)CN1C(=O)N[C@H](c2ccc(Br)cc2)C(C(C)=O)=C1C` was tested, and the EC50 was > 40 µM (inactive). For `CC(C)OCCCNS(=O)(=O)c1ccc2ccccc2c1`, the EC50 was > 40 µM (inactive). With `O=C1C=CC2C(c3ccc4c(c3)OCO4)CC1N2Cc1ccccc1` (configuration not stated) the EC50 was > 40 µM (inactive). In the case of `COc1cc(C(C[N+](=O)[O-])c2c(-c3ccccc3)cc3ccccn23)cc(OC)c1OC` (configuration not stated), the EC50 is reported as > 40 µM (inactive). With `CCOC(=O)C(=Cc1ccc(F)cc1)C(=O)OCC` the EC50 was > 40 µM (inactive). In the case of `O=C1c2ccccc2C(Nc2ccc3c(c2)OCCO3)N1c1ccccn1` (configuration not stated), the EC50 is reported as > 40 µM (inactive). For `O=c1cc(O)c2c(=O)n(-c3ccccc3)c3c(c2o1)CCCCCC3`, the EC50 was > 40 µM (inactive). In the case of `CC(=Nc1ccc2c(c1)nc(CO)n2C)C1=C(O)CC(C)(C)CC1=O`, the EC50 is reported as > 40 µM (inactive). `CN(C)C=C1C(=O)N(C2CCCCC2)C(=O)N(C2CCCCC2)C1=O` was tested, and the EC50 was > 40 µM (inactive). For `O=C(COc1ccc([N+](=O)[O-])cc1)N(Cc1ccccc1)Cc1ccccc1`, the EC50 was > 40 µM (inactive). In the case of `CC1(C)CC(=O)C2=C(C1)OC1=C(C(=O)CC(C)(C)C1)C2c1ccc(O)cc1O`, the EC50 is reported as > 40 µM (inactive). In the case of `C=CCn1c(O)c(C(CC)=NCCN2CCOCC2)c(=O)[nH]c1=O`, the EC50 is reported as > 40 µM (inactive). With `O=c1c(Cl)c(NCCCO)cnn1-c1nc2ccccc2[nH]1` the EC50 was > 40 µM (inactive). For `CC(=O)Oc1c(C(=O)c2nnc(C)o2)c(=O)n(C)c2ccccc12`, the EC50 was > 40 µM (inactive). In the case of `CC(C)n1c(=O)c2c(O)cc(=O)oc2c2ccccc21`, the EC50 is reported as > 40 µM (inactive). `COc1cc(OC)cc(-c2nc3ccccc3c(=O)n2OC(=O)c2ccccc2C)c1` was tested, and the EC50 was > 40 µM (inactive). With `CSc1ccc(S(=O)(=O)NCc2ccc(Cl)cc2Cl)cc1` the EC50 was > 40 µM (inactive). With `O=C1CC(c2ccccc2)CC(O)=C1C=NCCN1CCN(C(=O)Cc2ccccc2)CC1` (configuration not stated) the EC50 was > 40 µM (inactive). `Cn1c(=O)c(=O)n(C)c2cc(S(=O)(=O)N3CCN(Cc4ccccc4)CC3)ccc21` was tested, and the EC50 was > 40 µM (inactive). `Oc1ccc2ccccc2c1/C=N/c1nccs1` was tested, and the EC50 was > 40 µM (inactive). With `CCOc1ccc(/C=C/C(=O)c2c(O)c3ccccc3oc2=O)cc1` the EC50 was > 40 µM (inactive). `CC(C)(C)C(=O)Cn1c(=N)n(Cc2ccccc2)c2ccccc21` was tested, and the EC50 was > 40 µM (inactive). `COc1cc(OC)cc(-c2nc3ccccc3c(=O)n2OC(=O)c2ccc(C)c(C)c2)c1` was tested, and the EC50 was > 40 µM (inactive). `O=C(CCl)N1c2ccccc2OCC1c1ccccc1` (configuration not stated) was tested, and the EC50 was > 40 µM (inactive).
